Holding throughout (format): biochemical
One experiment addresses T1, Flt3 (h) (Homo sapiens, UniProt P36888).
T1 construct: purchased Eurofins
T1 sequence (P36888 27-993): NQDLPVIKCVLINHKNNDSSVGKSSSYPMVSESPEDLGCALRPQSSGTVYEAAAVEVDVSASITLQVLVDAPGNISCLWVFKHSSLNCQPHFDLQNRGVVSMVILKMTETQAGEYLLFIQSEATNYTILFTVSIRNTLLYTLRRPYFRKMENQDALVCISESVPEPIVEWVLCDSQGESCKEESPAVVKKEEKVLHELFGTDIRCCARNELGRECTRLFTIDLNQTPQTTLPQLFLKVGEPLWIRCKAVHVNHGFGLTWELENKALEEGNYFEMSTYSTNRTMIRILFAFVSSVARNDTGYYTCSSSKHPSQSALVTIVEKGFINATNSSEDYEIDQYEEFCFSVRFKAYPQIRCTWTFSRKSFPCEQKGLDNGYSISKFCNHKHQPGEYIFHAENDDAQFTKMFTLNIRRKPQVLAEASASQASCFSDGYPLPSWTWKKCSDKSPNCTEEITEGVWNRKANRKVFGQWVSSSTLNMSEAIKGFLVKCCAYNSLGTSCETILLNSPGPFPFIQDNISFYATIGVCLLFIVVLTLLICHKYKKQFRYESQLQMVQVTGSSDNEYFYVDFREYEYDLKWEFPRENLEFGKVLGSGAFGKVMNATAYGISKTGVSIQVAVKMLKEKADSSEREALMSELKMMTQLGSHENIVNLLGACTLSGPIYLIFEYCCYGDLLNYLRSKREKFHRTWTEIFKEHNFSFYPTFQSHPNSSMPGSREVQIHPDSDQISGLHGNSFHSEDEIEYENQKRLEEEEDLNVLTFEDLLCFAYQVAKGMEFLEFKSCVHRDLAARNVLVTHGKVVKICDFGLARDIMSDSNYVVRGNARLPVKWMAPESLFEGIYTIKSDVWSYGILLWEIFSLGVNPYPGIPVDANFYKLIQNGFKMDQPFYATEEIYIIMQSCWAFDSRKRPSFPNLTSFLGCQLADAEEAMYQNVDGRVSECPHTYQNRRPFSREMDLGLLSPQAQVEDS
In words: Radioisotope labeling kinase assay (Eurofins), Flt3. As to conditions: for activity at 1 µM: 1 μM compound, read-out: Inhibitory activity per unit concentration/Activity % Flt3 (h).

The next experiment has as its target T2, JAK2 (h) (Homo sapiens, UniProt O60674).
T2 construct: purchased Eurofins
The experiment in a line: Radioisotope labeling kinase assay (Eurofins), JAK2. On the procedure: An activity to a human recombinant protein kinase of a series of compounds was determined by a radioisotope labeling method, which was provided by Eurofins Company. A compound to be detected was mixed with a corresponding protein kinase buffer (20 mM propyl sulfonate (MOPS, […].), 1 mM EDTA, 0.10 β-mercaptoethanol, 0.010 Brij-35, […], and 1 mg/mL BSA), the mixture was added into a reaction system (100 μM reaction substrate […], 8 mM MOPS with a pH value of 7.0, 10 mM MgAcetate, 0.2 mM EDTA, and a certain concentration of γ-^33P-ATP). After adding an MgATP composite solution, the reaction was started at room temperature for 40 minutes, and the reaction was terminated by adding 5 μl of […] solution. Then, 10 μl of reaction solution was dropwise added onto a filter and washed with 75 mM phosphoric acid solution for three times, 5 minutes each time, then washed with methanol once again, and dried and subjected to scintillation counting.

The target in another experiment is T3, JAK3 (h) (Homo sapiens, UniProt P52333).
T3 construct: purchased Eurofins
T3 sequence (P52333 1-1124): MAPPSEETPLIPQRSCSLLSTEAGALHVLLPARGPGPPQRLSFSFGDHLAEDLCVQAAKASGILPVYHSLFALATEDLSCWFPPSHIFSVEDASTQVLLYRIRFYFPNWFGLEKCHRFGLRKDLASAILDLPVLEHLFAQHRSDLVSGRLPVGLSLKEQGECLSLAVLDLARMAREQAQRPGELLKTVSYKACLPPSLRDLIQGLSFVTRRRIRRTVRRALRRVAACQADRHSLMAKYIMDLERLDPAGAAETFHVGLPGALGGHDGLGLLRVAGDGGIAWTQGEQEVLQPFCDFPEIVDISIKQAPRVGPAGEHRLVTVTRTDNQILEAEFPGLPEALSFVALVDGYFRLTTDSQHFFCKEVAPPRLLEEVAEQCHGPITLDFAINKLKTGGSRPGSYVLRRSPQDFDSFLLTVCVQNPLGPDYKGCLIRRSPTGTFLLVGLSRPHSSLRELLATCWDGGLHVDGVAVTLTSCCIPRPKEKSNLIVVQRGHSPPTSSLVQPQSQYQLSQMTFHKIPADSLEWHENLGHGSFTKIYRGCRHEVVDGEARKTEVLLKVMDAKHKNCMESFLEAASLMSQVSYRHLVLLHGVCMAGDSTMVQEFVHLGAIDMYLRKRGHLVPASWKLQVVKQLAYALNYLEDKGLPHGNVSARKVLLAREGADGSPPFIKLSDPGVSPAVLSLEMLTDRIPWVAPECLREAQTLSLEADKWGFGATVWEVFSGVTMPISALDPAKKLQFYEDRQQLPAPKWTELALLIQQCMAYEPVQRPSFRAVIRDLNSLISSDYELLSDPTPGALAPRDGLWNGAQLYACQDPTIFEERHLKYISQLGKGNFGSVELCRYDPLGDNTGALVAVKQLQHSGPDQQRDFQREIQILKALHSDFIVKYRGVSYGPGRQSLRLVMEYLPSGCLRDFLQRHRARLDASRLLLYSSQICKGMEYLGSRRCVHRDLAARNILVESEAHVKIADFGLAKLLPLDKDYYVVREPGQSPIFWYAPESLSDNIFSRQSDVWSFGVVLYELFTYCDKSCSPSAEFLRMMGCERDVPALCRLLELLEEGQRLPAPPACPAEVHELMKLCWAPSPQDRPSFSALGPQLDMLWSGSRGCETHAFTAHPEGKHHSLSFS
The experiment in a line: Radioisotope labeling kinase assay (Eurofins), JAK3. As to conditions: for activity at 1 µM: 1 μM compound, read-out: Inhibitory activity per unit concentration/Activity % JAK3 (h).

Another experiment concerns the target T4, BTK (h) (Homo sapiens, UniProt Q06187).
T4 construct: purchased Eurofins
In words: Radioisotope labeling kinase assay (Eurofins), BTK. The following applies: for activity at 1 µM: 1 μM compound, read-out: Inhibitory activity per unit concentration/Activity % BTK (h).

T2 sequence (O60674 whole entry): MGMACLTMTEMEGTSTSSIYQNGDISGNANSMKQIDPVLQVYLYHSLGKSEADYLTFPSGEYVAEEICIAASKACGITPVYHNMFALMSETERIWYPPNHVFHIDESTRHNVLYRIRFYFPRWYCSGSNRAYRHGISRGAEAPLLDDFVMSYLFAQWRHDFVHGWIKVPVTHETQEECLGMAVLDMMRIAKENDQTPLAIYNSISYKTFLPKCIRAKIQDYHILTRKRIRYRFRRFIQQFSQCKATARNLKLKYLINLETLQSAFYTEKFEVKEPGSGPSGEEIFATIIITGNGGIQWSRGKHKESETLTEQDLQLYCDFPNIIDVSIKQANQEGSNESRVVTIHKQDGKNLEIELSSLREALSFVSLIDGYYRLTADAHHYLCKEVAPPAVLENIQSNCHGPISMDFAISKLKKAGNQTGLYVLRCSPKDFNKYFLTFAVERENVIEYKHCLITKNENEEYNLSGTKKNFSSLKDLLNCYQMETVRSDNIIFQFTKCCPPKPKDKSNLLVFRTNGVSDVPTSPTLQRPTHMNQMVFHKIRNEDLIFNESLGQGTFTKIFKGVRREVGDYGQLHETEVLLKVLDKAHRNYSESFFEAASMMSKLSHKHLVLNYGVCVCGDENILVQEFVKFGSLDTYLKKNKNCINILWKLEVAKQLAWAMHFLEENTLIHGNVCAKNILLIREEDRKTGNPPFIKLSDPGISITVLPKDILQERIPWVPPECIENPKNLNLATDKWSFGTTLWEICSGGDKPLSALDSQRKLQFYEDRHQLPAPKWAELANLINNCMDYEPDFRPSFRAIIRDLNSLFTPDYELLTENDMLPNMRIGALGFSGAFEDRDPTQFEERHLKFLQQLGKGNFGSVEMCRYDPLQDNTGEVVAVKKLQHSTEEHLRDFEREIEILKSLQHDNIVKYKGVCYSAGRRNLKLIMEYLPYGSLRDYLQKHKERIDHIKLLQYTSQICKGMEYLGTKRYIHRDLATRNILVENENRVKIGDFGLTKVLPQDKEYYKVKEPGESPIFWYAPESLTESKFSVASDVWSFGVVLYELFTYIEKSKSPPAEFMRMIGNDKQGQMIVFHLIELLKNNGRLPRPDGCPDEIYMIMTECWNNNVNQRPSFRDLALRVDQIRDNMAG
T4 sequence (Q06187 whole entry): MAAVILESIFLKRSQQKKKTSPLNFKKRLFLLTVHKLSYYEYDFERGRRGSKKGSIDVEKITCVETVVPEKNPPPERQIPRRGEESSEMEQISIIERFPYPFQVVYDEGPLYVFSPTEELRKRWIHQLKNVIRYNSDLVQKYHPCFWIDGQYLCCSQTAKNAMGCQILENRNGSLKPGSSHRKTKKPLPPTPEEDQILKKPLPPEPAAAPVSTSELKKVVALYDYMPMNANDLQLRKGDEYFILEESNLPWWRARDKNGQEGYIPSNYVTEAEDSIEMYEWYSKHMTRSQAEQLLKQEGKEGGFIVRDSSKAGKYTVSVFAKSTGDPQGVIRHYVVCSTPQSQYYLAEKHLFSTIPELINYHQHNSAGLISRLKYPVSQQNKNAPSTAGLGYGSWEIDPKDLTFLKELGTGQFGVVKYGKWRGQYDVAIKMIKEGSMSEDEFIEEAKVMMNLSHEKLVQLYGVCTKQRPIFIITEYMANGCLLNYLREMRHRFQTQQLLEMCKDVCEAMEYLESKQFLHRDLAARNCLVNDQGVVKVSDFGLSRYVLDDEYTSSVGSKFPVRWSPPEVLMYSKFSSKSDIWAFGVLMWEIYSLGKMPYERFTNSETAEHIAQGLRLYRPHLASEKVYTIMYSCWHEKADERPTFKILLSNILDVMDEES

Take `Nc1cc2cc(c1)Nc1nccc(n1)-c1cccc(c1)COC/C=C/COC2` [XIII-1]: the figures for the half-maximal inhibitory concentration (IC50) on Flt3 (h), against JAK2 (h) and at BTK (h) were 8 nM, 6 nM and 157 nM, respectively. Further, the activity at 1 µM at Flt3 (h) turned out to be 4%; at JAK3 (h), 10%; on BTK (h) it was 6%.

In the case of `O=C(/C=C/CN1CCCC1)Nc1cc2cc(c1)Nc1nccc(n1)-c1cccc(c1)COC/C=C/COC2` [XVI-1], the results for the 50% inhibitory concentration (IC50) at Flt3 (h), against JAK2 (h) and against BTK (h) were 2 nM, 9 nM and 29 nM, respectively. Moreover, the activity at 1 µM at Flt3 (h) was found to be 1%; on JAK3 (h), 9%; at BTK (h), 2%.

Regarding `O=C(/C=C/CN1CCOCC1)Nc1cc2cc(c1)Nc1nccc(n1)-c1cccc(c1)COC/C=C/COC2` [XVI-3], the concentration for half-maximal inhibition (IC50) (commonly the concentration needed to halve the response being measured) against Flt3 (h) stood at 4 nM; on JAK2 (h) it was 6 nM; at BTK (h), 40 nM. In addition, the results for the activity at 1 µM at Flt3 (h), on JAK3 (h) and at BTK (h) were 3%, 8% and 7%, respectively.

Turning to `C/C=C/C(=O)Nc1cc2cc(c1)Nc1nccc(n1)-c1cccc(c1)COC/C=C/COC2` [XVI-4], the IC50 turned out to be 5 nM against Flt3 (h), 10 nM against JAK2 (h) and 238 nM at BTK (h). The activity at 1 µM on Flt3 (h) is 5%; at JAK3 (h), 11%; on BTK (h), 9%.

For `C=CC(=O)Nc1cc2cc(c1)Nc1nccc(n1)-c1cccc(c1)COC/C=C/COC2` [XVI-6], the results for the IC50 against Flt3 (h), on JAK2 (h) and on BTK (h) were 15 nM, 16 nM and 348 nM, respectively. For the same compound, the activity at 1 µM on Flt3 (h) came to 5%; at JAK3 (h), 16%; at BTK (h) it was 16%.

Consider `CN(C)C/C=C/C(=O)Nc1cc2cc(c1)Nc1nccc(n1)-c1cccc(c1)COC/C=C/COC2` [XVI-8], for which the IC50 against Flt3 (h) came to 9 nM; against JAK2 (h), 29 nM; against BTK (h) it was 48 nM. Moreover, the activity at 1 µM was determined as 2% at Flt3 (h), 19% at JAK3 (h) and 9% on BTK (h).

In the case of `O=C(O)/C=C/C(=O)Nc1cc2cc(c1)Nc1nccc(n1)-c1cccc(c1)COC/C=C/COC2` [XVI-9], the concentration for half-maximal inhibition (IC50) against Flt3 (h) turned out to be 31 nM; at JAK2 (h), 7 nM; at JAK3 (h) it was 17 nM. The results for the activity at 1 µM on Flt3 (h), on JAK3 (h) and on BTK (h) were 4%, 4% and 62%, respectively.

Turning to `O=C(/C=C/C(=O)N1CCOCC1)Nc1cc2cc(c1)Nc1nccc(n1)-c1cccc(c1)COC/C=C/COC2` [XVI-10], the IC50 at Flt3 (h) amounted to 21 nM; against JAK2 (h) it was 17 nM; against JAK3 (h) it was 44 nM. Also, the activity at 1 µM on Flt3 (h) was determined as 3%; on JAK3 (h), 2%; at BTK (h), 31%.

For the compound `O=C(/C=C/C(=O)N1CCNCC1)Nc1cc2cc(c1)Nc1nccc(n1)-c1cccc(c1)COC/C=C/COC2` [XVI-11], the half-inhibitory concentration (IC50) against Flt3 (h) came out at 22 nM; on JAK2 (h), 38 nM; at JAK3 (h) it was 151 nM. Besides, the figures for the activity at 1 µM at Flt3 (h), at JAK3 (h) and on BTK (h) were 1%, 6% and 18%, respectively.

For `C1=C/COCc2cccc(c2)-c2ccnc(n2)Nc2cc(cc(OC/C=C/CN3CCCC3)c2)COC/1` [XVI-12], the half-inhibitory concentration (IC50) against Flt3 (h) came out at 15 nM; against JAK2 (h), 124 nM. Moreover, the activity at 1 µM was -8% at Flt3 (h), 26% on JAK3 (h) and 38% on BTK (h).

For the compound `CN(C)C/C=C/C(=O)Nc1cc2cc(c1)Nc1nccc(n1)-c1cccc(c1)COC/C=C/CN(C)C2` [XVI-26], the IC50 against Flt3 (h) was found to be 21 nM; against JAK2 (h), 328 nM; on BTK (h), 1250 nM. Also, the activity at 1 µM is 7% on Flt3 (h), 74% on JAK3 (h) and 50% at BTK (h).

As to `C/C=C/C(=O)Nc1cc2cc(c1)Nc1nccc(n1)-c1cccc(c1)COC/C=C/CN(C)C2` [XVI-28], the IC50 stood at 9 nM on Flt3 (h), 86 nM against JAK2 (h) and 1470 nM at BTK (h). The activity at 1 µM at Flt3 (h) is 8%; at JAK3 (h) it was 51%; on BTK (h), 57%.

With `C#CC(=O)Nc1cc2cc(c1)Nc1nccc(n1)-c1cccc(c1)COC/C=C/COC2` [XVII-1], the figures for the IC50 against Flt3 (h) and against JAK2 (h) were 7 nM and 13 nM, respectively. Further, the activity at 1 µM at Flt3 (h) came out at 4%; at JAK3 (h), 16%; at BTK (h) it was 8%.

The values are drawn from patent publication US20240425518A1, “N-MACROCYCLIC AMIDE COMPOUNDS, PREPARATION METHODS THEREOF AND APPLICATIONS THEREOF AS MEDICAMENTS” (Chengdu FANXI Biopharma Co., Ltd., priority 2023, published 2024).
